# Results reported in PMC10977697 (PLOS ONE, 2024).
# Where no end group is shown, it is not given here.
# Tested on: HtrA1
# Assay: not given
# Type: binding, human
# Settings: not given
row,Compound,S/N
1,CC[C@H](C)[C@@H]1NC(=O)[C@H](CO)NC(=O)[C@@H]2CSSC[C@@H]3NC(=O)[C@H](CO)NC(=O)CNC(=O)[C@H]([C@@H](C)O)NC(=O)[C@H](CSSC[C@H](N)C(=O)N[C@@H](CCCCN)C(=O)NCC(=O)N[C@@H](CCCCN)C(=O)NCC(=O)N[C@@H](C)C(=O)N[C@@H](CCCCN)C(=O)N2)NC(=O)[C@H](CSSC[C@@H](C(=O)O)NC(=O)[C@H](CCCCN)NC(=O)CNC(=O)[C@H](CO)NC(=O)[C@H](CCCNC(=N)N)NC3=O)NC(=O)[C@H](C(C)C)NC(=O)[C@H](CCCCN)NC(=O)[C@H](Cc2c[nH]c3ccccc23)NC(=O)[C@@H]2CCCN2C(=O)[C@H](Cc2ccc(O)cc2)NC(=O)[C@H](C(C)C)NC(=O)[C@H](CO)NC(=O)[C@H](Cc2c[nH]c3ccccc23)NC(=O)[C@H](CCC(N)=O)NC1=O [HtrA1_CnTx83],16.1

# Same assay, conditions: ratio of signal for target protein over BSA background
row,Compound,S/N
1,AFDCLGQCGRCDFHKLQCVAWLMYSFVRPYCNSSCTR (also: bicyclic or more (positions not given here)) [HtrA1 AVR9 53],7.3

# Tested on: ApoL1
# Assay: Spot phage ELISA, ApoL1
# Type: binding, human
# Settings: ratio of signal for target protein over BSA background
row,Compound,S/N
1,GCRFWQWRCKQDSDCLAGCVCGWDRECG (also: bicyclic or more (positions not given here)) [ApoL1 EET I-II 32],17.1
2,GCSWKCKQDSDCLAGCVCKMSQQCG (also: bicyclic or more (positions not given here)) [ApoL1 EET I-II 45],4.7
3,GCYYKCKQDSDCLAGCVCRTSNMCG (also: bicyclic or more (positions not given here)) [ApoL1 EET I-II 17],39.0
4,GPTQSPFGQCGGIGYSGPTVCASGTTCQVLRPNFSWCLPGAS (also: bicyclic or more (positions not given here)) [ApoL1 CBD 1],21.6

# Tested on: Lgr5ECD-Fc
# Assay: not given
# Type: binding, human
# Settings: ratio of signal for target protein over BSA background
row,Compound,S/N
1,GCASGYWWRMWFCKQDSDCLAGCVCGPNGFCG (also: bicyclic or more (positions not given here)) [Lgr5ECD-Fc EET I-II 15],14.1
2,GCAVYQVYCKQDSDCLAGCVCAVKFHCG (also: bicyclic or more (positions not given here)) [Lgr5ECD-Fc EET I-II 12],21.6
3,GCGFWWKYWFCKQDSDCLAGCVCGPNGFCG (also: bicyclic or more (positions not given here)) [Lgr5ECD-Fc EET I-II 20],6.1
4,GCGFWYMQWFCKQDSDCLAGCVCDPMGNCG (also: bicyclic or more (positions not given here)) [Lgr5ECD-Fc EET I-II 6],36.2
5,GCGWWYRQWFCKQDSDCLAGCVCLETPECG (also: bicyclic or more (positions not given here)) [Lgr5ECD-Fc EET I-II 4],40.2
6,GCGYWFYEWFCKQDSDCLAGCVCDPNGFCG (also: bicyclic or more (positions not given here)) [Lgr5ECD-Fc EET I-II 11],21.7
7,GCGYWWKKWFCKQDSDCLAGCVCGPNSFCG (also: bicyclic or more (positions not given here)) [Lgr5ECD-Fc EET I-II 9],29.2
8,GCGYWWKQWFCKQDSDCLAGCVCGPNGFCG (also: bicyclic or more (positions not given here)) [Lgr5ECD-Fc EET I-II 10],25.7
9,GCGYWWRLWFCKQDSDCLAGCVCGPNGSCG (also: bicyclic or more (positions not given here)) [Lgr5ECD-Fc EET I-II 14],15.3
10,GCGYWWRTWFCKQDSDCLAGCVCGPNGFCG (also: bicyclic or more (positions not given here)) [Lgr5ECD-Fc EET I-II 13],17.1
11,GCGYWWVQWFCKQDSDCLAGCVCGPNGFCD (also: bicyclic or more (positions not given here)) [Lgr5ECD-Fc EET I-II 17],10.3
12,GCGYWYKQWFCKQDSDCLAGCVCGPNGFCG (also: bicyclic or more (positions not given here)) [Lgr5ECD-Fc EET I-II 8],32.0
13,GCGYWYLEWFCKQDSDCLAGCVCGPNGFCG (also: bicyclic or more (positions not given here)) [Lgr5ECD-Fc EET I-II 18],9.9
14,GCGYWYRIWFCKQDSDCLAGCVCGPNGFCG (also: bicyclic or more (positions not given here)) [Lgr5ECD-Fc EET I-II 3],43.5
15,GCGYWYRVWFCKQDSDCLAGCVCQEPGPCG (also: bicyclic or more (positions not given here)) [Lgr5ECD-Fc EET I-II 2],44.3
16,GCHEGYWWRQWFCKQDSDCLAGCVCGPNGFCG (also: bicyclic or more (positions not given here)) [Lgr5ECD-Fc EET I-II 16],11.5
17,GCLFRNLRMACKQDSDCLAGCVCGPNGFCG (also: bicyclic or more (positions not given here)) [Lgr5ECD-Fc EET I-II 24],13.9
18,GCLYLGWLCKQDSDCLAGCVCDYFWYCVHqS (bicyclic or more) [Lgr5ECD-Fc EET I-II 25],19.5
19,GCMNSYWYNQWFCKQDSDCLAGCVCGPNGFCG (also: bicyclic or more (positions not given here)) [Lgr5ECD-Fc EET I-II 1],47.1
20,GCNRSYWFRQWFCKQDSDCLAGCVCGPNGFCG (also: bicyclic or more (positions not given here)) [Lgr5ECD-Fc EET I-II 22],4.7
21,GCQQGYWYWQWFCKQDSDCLAGCVCGPNGFCG (also: bicyclic or more (positions not given here)) [Lgr5ECD-Fc EET I-II 7],33.7
22,GCRHGYWFHYWFCKQDSDCLAGCVCGPNGFCG (also: bicyclic or more (positions not given here)) [Lgr5ECD-Fc EET I-II 23],3.9

row,Compound,S/N
1,GCSYWWRVWFCKQDSDCLAGCVCGPNGFCG (also: bicyclic or more (positions not given here)) [Lgr5ECD-Fc EET I-II 19],7.2
2,GCTSNFWYKQWFCKQDSDCLAGCVCGPNGFCG (also: bicyclic or more (positions not given here)) [Lgr5ECD-Fc EET I-II 5],39.0
3,GCWVNFWMCKQDSDCLAGCVCRVLDVCG (also: bicyclic or more (positions not given here)) [Lgr5ECD-Fc EET I-II 26],11.7
4,GCYHGYWYITWFCKQDSDCLAGCVCSQDEQCG (also: bicyclic or more (positions not given here)) [Lgr5ECD-Fc EET I-II 21],5.1
5,GPAHSTYGRCGGIDYYGPTVCASGTTCLVLWPALSWCLPRSF (also: bicyclic or more (positions not given here)) [Lgr5ECD-Fc CBD 17],26.2
6,GPTQSAFGPCGGIGYSGHTVCASGTTCQVLSPNVSHCLPGAS (also: bicyclic or more (positions not given here)) [Lgr5ECD-Fc CBD 16],6.6
7,GPTQSAFGPCGGIGYSGPTVCASGTTCQVLSPDVSQCLPGAS (also: bicyclic or more (positions not given here)) [Lgr5ECD-Fc CBD 6],36.0
8,GPTQSAFGPCGGIGYSGPTVCASGTTCQVLSPDVSRCLPGAS (also: bicyclic or more (positions not given here)) [Lgr5ECD-Fc CBD 8],30.3
9,GPTQSAYGQCGGIGYSGPTVCASGTTCQVLWPQVSWCLPGAS (also: bicyclic or more (positions not given here)) [Lgr5ECD-Fc CBD 13],14.2
10,GPTQSHYGLCGGIGYSGPTVCASGTTCQVLSPEFSQCLPGAS (also: bicyclic or more (positions not given here)) [Lgr5ECD-Fc CBD 10],23.6
11,GPTQSLFGMCGGIGYSGPTVCASGTTCQVLDPTTSQCLPGAS (also: bicyclic or more (positions not given here)) [Lgr5ECD-Fc CBD 2],42.7
12,GPTQSOYGMCGGIGYSGPTVCASGTTCQVLDPTTSQCLPGAS (bicyclic or more) [Lgr5ECD-Fc CBD 18],34.5
13,GPTQSPGGICGGIGYSGPTVCASGTTCQVLSPEYSQCLPGAS (also: bicyclic or more (positions not given here)) [Lgr5ECD-Fc CBD 7],34.9
14,GPTQSQFGMCGGIGYSGPTVCASGTTCQVLDPTTSQCLPGAS (also: bicyclic or more (positions not given here)) [Lgr5ECD-Fc CBD 4],40.8
15,GPTQSQYGICGGIGYSGPTVCASGTTCQVLSPDWSQCLPGAS (also: bicyclic or more (positions not given here)) [Lgr5ECD-Fc CBD 9],23.7
16,GPTQSQYGICGGIGYSGPTVCASGTTCQVLSPEFSQCLPGAS (also: bicyclic or more (positions not given here)) [Lgr5ECD-Fc CBD 14],12.1
17,GPTQSQYGLCGGIGYSGPTVCASGTTCQVLDPTTSQCLPGAS (also: bicyclic or more (positions not given here)) [Lgr5ECD-Fc CBD 15],8.9
18,GPTQSTWGQCGGIGYSGPTVCASGTTCQVLWPTLSWCLPGAS (also: bicyclic or more (positions not given here)) [Lgr5ECD-Fc CBD 5],38.3
19,GPTQSTYGQCGGIGYSGPTVCASGTTCQVLWPALSWCLPGAS (also: bicyclic or more (positions not given here)) [Lgr5ECD-Fc CBD 1],43.0
20,GPTQSVYGICGGIGYSGPTVCASGTTCQVLDPTTSQCLPGAS (also: bicyclic or more (positions not given here)) [Lgr5ECD-Fc CBD 12],18.9
21,GPTQSVYGICGGIGYSGPTVCASGTTCQVLSPEFSQCLPGAS (also: bicyclic or more (positions not given here)) [Lgr5ECD-Fc CBD 11],23.1
22,GPTQSVYGMCGGIGYSGPTVCASGTTCQVLDPTTSQCLPGAS (also: bicyclic or more (positions not given here)) [Lgr5ECD-Fc CBD 3],41.0
